# Like-named read-outs stand apart in the source and are kept apart here.
# Assays:
# full length mouse TREX1 = molecular target: T1, full length mouse TREX1 (Mus musculus, UniProt Q91XB0); assay: mTREX1 Biochemical Assay (fluorescence, dsDNA substrate degradation)
# T1 construct: N-terminally His-Tev tagged full length mouse TREX1; made in house; host or cells: E. coli
# T1 sequence (Q91XB0 1-314): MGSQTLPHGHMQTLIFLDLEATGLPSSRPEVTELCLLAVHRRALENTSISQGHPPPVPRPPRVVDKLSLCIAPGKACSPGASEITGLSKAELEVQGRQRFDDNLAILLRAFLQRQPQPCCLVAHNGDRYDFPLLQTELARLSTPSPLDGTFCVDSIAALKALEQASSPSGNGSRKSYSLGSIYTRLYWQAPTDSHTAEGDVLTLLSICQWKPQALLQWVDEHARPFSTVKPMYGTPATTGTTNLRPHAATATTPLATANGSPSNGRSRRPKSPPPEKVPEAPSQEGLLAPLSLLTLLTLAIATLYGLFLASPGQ
# Summary of the method: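 Reaction run 18 h at 25° C. with 60 nM TEX615/quencher-labelled dsDNA and 6 pM mouse TREX1 in Tris buffer (pH 7.4, 5 mM MgCl2, 1.0% DMSO), enzyme having sat 4 h with compound across 10 concentrations. EDTA quench; substrate degradation measured as fluorescence increase.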
# full length human TREX1 = molecular target: T2, full length human TREX1 (Homo sapiens, UniProt Q9NSU2); assay: hTREX1 Biochemical Assay (fluorescence, dsDNA substrate degradation)
# T2 construct: N-terminally His-Tev tagged full length human TREX1; made in house; host or cells: E. coli
# T2 sequence (Q9NSU2 1-314): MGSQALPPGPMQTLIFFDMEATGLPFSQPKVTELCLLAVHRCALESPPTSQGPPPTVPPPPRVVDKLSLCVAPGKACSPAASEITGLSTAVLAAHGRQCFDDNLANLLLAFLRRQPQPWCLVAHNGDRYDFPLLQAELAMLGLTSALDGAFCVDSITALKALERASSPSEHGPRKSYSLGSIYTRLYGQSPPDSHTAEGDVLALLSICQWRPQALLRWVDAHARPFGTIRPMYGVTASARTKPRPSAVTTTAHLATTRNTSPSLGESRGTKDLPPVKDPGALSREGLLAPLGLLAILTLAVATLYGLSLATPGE
# Summary of the method: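 Fluorescence rises as enzyme degrades a quenched TEX615-labelled dsDNA substrate (60 nM) in 50 mM Tris, 150 mM NaCl, 5 mM MgCl2, pH 7.4. Full-length His-Tev-tagged human TREX1, 4 pM, sits with compound 4 hours at 25° C before substrate; reaction 18 hours, stopped with EDTA.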
# [1] = biochemical, read-out: mTREX1 IC50
# [2] = biochemical, read-out: hTREX1 IC50
IC50 (full length mouse TREX1; [1]) [µM],IC50 (full length human TREX1; [2]) [µM],Compound,"IC50 (full length mouse TREX1; mTREX1 IC50, biochemical) [µM]","IC50 (full length human TREX1; hTREX1 IC50, biochemical) [µM]"
> 0.01,> 0.01,"CC(c1nc(C(=O)Nc2cnoc2)c(O)c(=O)n1C)C(c1cn(C)cn1)c1ccccc1C#N (single isomer, unassigned) [Example 39 D2E1]",,
> 0.01,> 0.01,"CCn1cc(C(c2cc(F)c(F)cc2Cl)C(C)c2nc(C(=O)Nc3cnoc3)c(O)c(=O)n2C)cn1 (single isomer, unassigned) [Example 72 D2E2]",,
> 0.01,> 0.01,"Cc1c(C(c2ccccc2C#N)C(C)c2nc(C(=O)Nc3cnoc3)c(O)c(=O)n2C)cnn1C (single isomer, unassigned) [Example 4 D1E2]",,
> 0.01,> 0.01,"Cc1cc(C(c2ccccc2C#N)C(C)c2nc(C(=O)Nc3cnoc3)c(O)c(=O)n2C)n(C)n1 (single isomer, unassigned) [Example 63 D2E1]",,
> 0.01,0.001 to 0.01,"CC(c1nc(C(=O)Nc2cnoc2)c(O)c(=O)n1C)C(c1cnn(CCO)c1)c1ccccc1C#N (single isomer, unassigned) [Example 35 D2E1]",,
> 0.01,< 0.001,"CCn1ncc(C(c2ccc(F)cc2C#N)C(C)c2nc(C(=O)Nc3cnoc3)c(O)c(=O)n2C)c1C (single isomer, unassigned) [Example 65 D2E2]",,
> 0.01,> 0.01,"CC(c1nc(C(=O)Nc2cnoc2)c(O)c(=O)n1C)C(c1cn(C)cn1)c1ccccc1C#N (single isomer, unassigned) [Example 39 D1E1]",,
> 0.01,> 0.01,"COCCn1cc(C(c2ccccc2C#N)C(C)c2nc(C(=O)Nc3cnoc3)c(O)c(=O)n2C)c(C)n1 (single isomer, unassigned) [Example 71 D1E2]",,
> 0.01,> 0.01,"CC(c1nc(C(=O)Nc2cnoc2)c(O)c(=O)n1C)C(c1cnn(C)c1)c1cc(F)ccc1C#N (single isomer, unassigned) [Example 14 D1E1]",,
> 0.01,> 0.01,"CCn1cc(C(c2ccccc2C#N)C(C)c2nc(C(=O)Nc3cnoc3)c(O)c(=O)n2C)cn1 (single isomer, unassigned) [Example 13 D2E2]",,
> 0.01,> 0.01,"Cc1nn(C)cc1C(c1ccccc1C#N)C(C)c1nc(C(=O)Nc2cnoc2)c(O)c(=O)n1C (single isomer, unassigned) [Example 3 D1E2]",,
> 0.01,> 0.01,"CC(c1nc(C(=O)Nc2cnoc2)c(O)c(=O)n1C)C(c1cnn(C)c1)c1ccc(C(F)(F)F)cc1C#N (single isomer, unassigned) [Example 30 D2E2]",,
> 0.01,> 0.01,"Cc1nn(C)cc1C(c1ccc(F)cc1C#N)C(C)c1nc(C(=O)Nc2cnoc2)c(O)c(=O)n1C (single isomer, unassigned) [Example 56 D1E2]",,
> 0.01,> 0.01,"CC(c1nc(C(=O)Nc2cnoc2)c(O)c(=O)n1C)C(c1ccccc1C#N)c1cn(C)nc1C#N (single isomer, unassigned) [Example 10 D2E2]",,
> 0.01,> 0.01,"Cc1ncc(C(c2ccccc2Cl)C(C)c2nc(C(=O)Nc3cnoc3)c(O)c(=O)n2C)nc1C (single isomer, unassigned) [Example 125 D2E2]",,
> 0.01,> 0.01,"Cc1ccc(C(c2ccccc2C#N)C(C)c2nc(C(=O)Nc3cnoc3)c(O)c(=O)n2C)cn1 (single isomer, unassigned) [Example 5 D1E1]",,
> 0.01,> 0.01,"COCCn1cc(C(c2cc(F)c(F)cc2Cl)C(C)c2nc(C(=O)Nc3cnoc3)c(O)c(=O)n2C)cn1 (single isomer, unassigned) [Example 73 D1E2]",,
> 0.01,> 0.01,"CC(c1nc(C(=O)Nc2cnoc2)c(O)c(=O)n1C)C(c1ccccc1C#N)c1c(C#N)cnn1C (single isomer, unassigned) [Example 52 D1E2]",,
> 0.01,> 0.01,"COCCn1cc(C(c2ccccc2C#N)C(C)c2nc(C(=O)Nc3cnoc3)c(O)c(=O)n2C)c(C)n1 (single isomer, unassigned) [Example 71 D2E2]",,
> 0.01,> 0.01,"COCCn1cc(C(c2cc(F)c(F)cc2Cl)C(C)c2nc(C(=O)Nc3cnoc3)c(O)c(=O)n2C)cn1 (single isomer, unassigned) [Example 73 D2E2]",,

# The remaining lines, values behind:
Compound,IC50 (full length mouse TREX1; [1]) [µM],IC50 (full length human TREX1; [2]) [µM],"IC50 (full length mouse TREX1; mTREX1 IC50, biochemical) [µM]","IC50 (full length human TREX1; hTREX1 IC50, biochemical) [µM]"
"Cc1nn(C)cc1C(c1cc(F)ccc1Cl)C(C)c1nc(C(=O)Nc2cnoc2)c(O)c(=O)n1C (single isomer, unassigned) [Example 62 D1E2]",> 0.01,> 0.01,,
"CC(c1nc(C(=O)Nc2cnoc2)c(O)c(=O)n1C)C(c1cnn(C)c1)c1ccncc1C#N (single isomer, unassigned) [Example 8 D1E1]",> 0.01,> 0.01,,
"CC(c1nc(C(=O)Nc2cnoc2)c(O)c(=O)n1C)C(c1cnn(C)c1)c1cc(C(F)(F)F)ccc1C#N (single isomer, unassigned) [Example 29 D2E1]",> 0.01,> 0.01,,
"CCn1cc(C(c2cc(F)ccc2C#N)C(C)c2nc(C(=O)Nc3cnoc3)c(O)c(=O)n2C)cn1 (single isomer, unassigned) [Example 17 D1E1]",> 0.01,> 0.01,,
"Cc1nn(C)cc1C(c1cc(F)ccc1Cl)C(C)c1nc(C(=O)Nc2cnoc2)c(O)c(=O)n1C (single isomer, unassigned) [Example 62 D2E1]",> 0.01,> 0.01,,
"CC(c1nc(C(=O)Nc2cnoc2)c(O)c(=O)n1C)C(c1cocn1)c1ccccc1C#N (single isomer, unassigned) [Example 50 D2E2]",> 0.01,> 0.01,,
"Cc1nn(C)cc1C(c1cc(F)ccc1Cl)C(C)c1nc(C(=O)Nc2cnoc2)c(O)c(=O)n1C (single isomer, unassigned) [Example 62 D1E1]",> 0.01,> 0.01,,
"CCn1cc(C(c2ccc(F)cc2C#N)C(C)c2nc(C(=O)Nc3cnoc3)c(O)c(=O)n2C)c(C)n1 (single isomer, unassigned) [Example 55 D1E2]",> 0.01,> 0.01,,
"CC(c1nc(C(=O)Nc2cnoc2)c(O)c(=O)n1C)C(c1cnn(CCO)c1)c1ccccc1C#N (single isomer, unassigned) [Example 35 D1E2]",> 0.01,> 0.01,,
"CC(c1nc(C(=O)Nc2cnoc2)c(O)c(=O)n1C)C(c1cnn(CCN2CCN(C)CC2)c1)c1ccccc1C#N (single isomer, unassigned) [Example 32 D1E2]",> 0.01,0.001 to 0.01,,
"CCn1ncc(C(c2ccccc2C#N)C(C)c2nc(C(=O)Nc3cnoc3)c(O)c(=O)n2C)c1C (single isomer, unassigned) [Example 68 D2E2]",> 0.01,> 0.01,,
"CC(c1nc(C(=O)Nc2cnoc2)c(O)c(=O)n1C)C(c1cnn(C)c1)c1c(C#N)cccc1C#N (single isomer, unassigned) [Example 19 D1E1]",> 0.01,> 0.01,,
"COCCCn1cc(C(c2ccccc2C#N)C(C)c2nc(C(=O)Nc3cnoc3)c(O)c(=O)n2C)cn1 (single isomer, unassigned) [Example 24 D2E1]",> 0.01,> 0.01,,
"CC(c1nc(C(=O)Nc2cnoc2)c(O)c(=O)n1C)C(c1cnn(C)c1)c1ccccc1C#N (single isomer, unassigned) [Example 2 D2E1]",> 0.01,> 0.01,,
"Cc1ccnn1C(c1ccccc1Cl)C(C)c1nc(C(=O)Nc2cnoc2)c(O)c(=O)n1C (single isomer, unassigned) [Example 54 D1E1]",,,0.001 to 0.01,0.001 to 0.01

# — patent US20240246946A1, “MODULATORS OF TREX1” (Constellation Pharmaceuticals, Inc., priority 2021, published 2024)
